Laboratory results: patent US8192962B2, “Processes for detecting toxic substances” (Daikin Industries, Ltd., priority 2001, dated 2012)

Test system: Stress protein genes
Assay: DNA chip mRNA expression in yeast, stress protein genes (Table 6)
Assay type: cell-based, Saccharomyces cerevisiae S288C
Outline: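 Value is the scanned fluorescence intensity ratio of exposed versus chemical-free cells. Log-phase S288C yeast in YPD at 25° C. received one toxic substance for two hours, dosed to slow growth without killing; Cy3/Cy5-labeled cDNA from oligo-dT-purified mRNA was hybridized to a whole-genome chip at 65° C.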

Measured: The level of expressed mRNA in the presence of chemical substance/The level of expressed mRNA in the absence of chemical substance

C[S+](C)[O-] [(15), dimethylsulfoxide]
1.0: yeast gene YBR126C | yeast gene YCR083W | yeast gene YDL025C | yeast gene YER042W | yeast gene YHL046C | yeast gene YIL033C | yeast gene YIR037W | yeast gene YJL165C | yeast gene YKL210W | yeast gene YML007W | yeast gene YMR021C | yeast gene YOL064C | yeast gene YPL059W
0.7: yeast gene YAL015C | yeast gene YGL115W | yeast gene YGR088W | yeast gene YNL064C | yeast gene YNL160W | yeast gene YPL140C
2.7: yeast gene YPR005C
3.3: yeast gene YBR067C
0.4: yeast gene YEL039C
2.2: yeast gene YDR098C
0.9: yeast gene YBR044C | yeast gene YDL022W | yeast gene YGL073W | yeast gene YIL011W | yeast gene YLL026W | yeast gene YLR006C | yeast gene YML070W | yeast gene YOR008C
1.5: yeast gene YGL181W | yeast gene YLL060C | yeast gene YPL223C
1.2: yeast gene YHR057C | yeast gene YIR038C | yeast gene YJL128C | yeast gene YKL164C | yeast gene YPL240C
0.8: yeast gene YDR033W | yeast gene YDR436W | yeast gene YEL030W | yeast gene YER125W | yeast gene YFL016C
6.3: yeast gene YFL014W
2.0: yeast gene YDR519W
1.7: yeast gene YDR293C | yeast gene YER057C | yeast gene YJL158C
1.1: yeast gene YNR076W | yeast gene YOL161C | yeast gene YPL106C
3.9: yeast gene YLR109W
2.3: yeast gene YJR045C
1.4: yeast gene YFL020C | yeast gene YFR052W | yeast gene YOR027W | yeast gene YPL194W
1.3: yeast gene YDR513W | yeast gene YKL161C | yeast gene YLL024C | yeast gene YMR186W
4.9: yeast gene YBR072W
2.5: yeast gene YDR155C | yeast gene YMR173W
6.1: yeast gene YDR077W
0.6: yeast gene YBR054W | yeast gene YDR258C | yeast gene YHL028W | yeast gene YOR009W | yeast gene YOR010C
0.3: yeast gene YKR053C
1.6: yeast gene YBR169C | yeast gene YHR104W | yeast gene YJR090C
